Source: publication PMC12155096 (International Journal of Molecular Sciences, 2025)
Read-outs that look alike come from different tables or passages of the source.

Assays:
[1] = biological target: T1, human CYP1A2 (Homo sapiens, UniProt P05177); conditions: human
T1 sequence (P05177 1-516): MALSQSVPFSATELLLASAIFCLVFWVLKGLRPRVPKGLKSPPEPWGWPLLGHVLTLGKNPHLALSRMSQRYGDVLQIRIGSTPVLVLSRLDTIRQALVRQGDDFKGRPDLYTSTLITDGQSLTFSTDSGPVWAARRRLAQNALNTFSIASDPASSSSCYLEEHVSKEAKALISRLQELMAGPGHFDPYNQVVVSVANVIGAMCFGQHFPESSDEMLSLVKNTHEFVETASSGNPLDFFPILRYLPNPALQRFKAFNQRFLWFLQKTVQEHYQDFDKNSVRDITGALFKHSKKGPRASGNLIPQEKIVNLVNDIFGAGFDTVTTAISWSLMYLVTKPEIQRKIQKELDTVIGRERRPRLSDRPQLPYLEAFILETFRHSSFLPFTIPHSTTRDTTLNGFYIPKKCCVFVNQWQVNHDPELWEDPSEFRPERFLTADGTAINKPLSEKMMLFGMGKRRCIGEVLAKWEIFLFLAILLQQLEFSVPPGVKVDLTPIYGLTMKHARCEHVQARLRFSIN

[2] = biological target: T2, human CYP2C19 (Homo sapiens, UniProt P33261); conditions: for CYP2C19 Efficacy (in parenthesis): human
T2 sequence (P33261 whole entry): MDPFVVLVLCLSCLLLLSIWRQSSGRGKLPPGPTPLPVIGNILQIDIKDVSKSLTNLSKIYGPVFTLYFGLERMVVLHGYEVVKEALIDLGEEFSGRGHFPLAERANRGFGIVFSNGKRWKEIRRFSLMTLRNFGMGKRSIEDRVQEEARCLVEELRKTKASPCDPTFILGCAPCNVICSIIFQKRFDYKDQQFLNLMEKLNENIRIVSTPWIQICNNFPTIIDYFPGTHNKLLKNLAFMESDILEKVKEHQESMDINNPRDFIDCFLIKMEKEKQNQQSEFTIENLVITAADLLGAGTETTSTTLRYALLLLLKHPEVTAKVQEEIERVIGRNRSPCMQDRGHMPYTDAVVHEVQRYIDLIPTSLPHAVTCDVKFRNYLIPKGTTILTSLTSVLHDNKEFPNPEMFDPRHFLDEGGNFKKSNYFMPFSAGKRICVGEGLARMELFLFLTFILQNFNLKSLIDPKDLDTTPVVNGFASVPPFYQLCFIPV

[3] = biological target: T3, human CYP2C9 (Homo sapiens, UniProt P11712); conditions: human
T3 sequence (P11712 whole entry): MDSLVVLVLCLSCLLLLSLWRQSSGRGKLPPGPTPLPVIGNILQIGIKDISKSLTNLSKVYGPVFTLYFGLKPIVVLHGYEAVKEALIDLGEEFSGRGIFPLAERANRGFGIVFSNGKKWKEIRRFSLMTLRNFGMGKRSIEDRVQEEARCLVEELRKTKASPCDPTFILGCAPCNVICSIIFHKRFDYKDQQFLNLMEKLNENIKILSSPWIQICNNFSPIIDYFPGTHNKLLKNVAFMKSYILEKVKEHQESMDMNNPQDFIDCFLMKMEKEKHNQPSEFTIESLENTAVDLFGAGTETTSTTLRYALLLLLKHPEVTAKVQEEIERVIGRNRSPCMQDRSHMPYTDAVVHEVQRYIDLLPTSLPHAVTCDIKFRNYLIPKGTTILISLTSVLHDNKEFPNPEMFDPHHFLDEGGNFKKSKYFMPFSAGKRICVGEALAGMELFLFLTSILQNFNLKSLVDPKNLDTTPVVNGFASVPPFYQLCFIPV

[4] = biological target: T4, human CYP2D6 (Homo sapiens, UniProt P10635); test: biochemical
T4 sequence (P10635 whole entry): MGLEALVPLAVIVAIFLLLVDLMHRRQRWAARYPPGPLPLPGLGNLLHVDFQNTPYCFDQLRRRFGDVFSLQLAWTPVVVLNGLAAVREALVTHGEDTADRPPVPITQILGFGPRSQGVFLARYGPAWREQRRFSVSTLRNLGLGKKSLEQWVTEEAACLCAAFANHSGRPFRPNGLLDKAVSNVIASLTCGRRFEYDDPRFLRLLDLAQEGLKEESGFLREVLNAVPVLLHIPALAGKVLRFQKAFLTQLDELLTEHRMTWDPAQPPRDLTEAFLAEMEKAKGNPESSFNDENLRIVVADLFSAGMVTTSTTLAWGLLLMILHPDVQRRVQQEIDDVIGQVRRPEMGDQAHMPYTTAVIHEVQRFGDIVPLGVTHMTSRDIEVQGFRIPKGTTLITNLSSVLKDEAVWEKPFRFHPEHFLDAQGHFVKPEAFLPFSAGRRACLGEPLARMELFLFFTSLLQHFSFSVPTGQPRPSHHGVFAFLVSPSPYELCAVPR

[5] = biological target: T4, human CYP2D6; conditions: human
[6] = biological target: T2, human CYP2C19; test: biochemical
[7] = biological target: T1, human CYP1A2; test: biochemical
[8] = biological target: T3, human CYP2C9; test: biochemical
[9] = biological target: CYP3A4 (Homo sapiens, UniProt P08684)
Sequence of CYP3A4 (P08684 whole entry): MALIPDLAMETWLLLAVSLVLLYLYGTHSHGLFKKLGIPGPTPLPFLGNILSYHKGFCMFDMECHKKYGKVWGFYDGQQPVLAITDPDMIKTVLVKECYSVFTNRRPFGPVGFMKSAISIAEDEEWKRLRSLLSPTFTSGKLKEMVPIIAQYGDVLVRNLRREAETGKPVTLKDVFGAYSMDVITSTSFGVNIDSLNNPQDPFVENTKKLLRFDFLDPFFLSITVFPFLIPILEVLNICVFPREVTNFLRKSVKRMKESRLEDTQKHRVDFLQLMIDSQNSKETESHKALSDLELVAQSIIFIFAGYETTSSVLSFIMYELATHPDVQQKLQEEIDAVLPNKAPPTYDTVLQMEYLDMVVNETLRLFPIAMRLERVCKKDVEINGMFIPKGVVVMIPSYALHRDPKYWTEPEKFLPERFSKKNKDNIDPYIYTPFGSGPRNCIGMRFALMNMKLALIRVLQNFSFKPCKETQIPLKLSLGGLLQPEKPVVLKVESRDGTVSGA

[10] = CYP2D6 IC50 (half-maximal inhibitory concentration)
[11] = CYP2C19 IC50 (half-maximal inhibitory concentration)
[12] = CYP1A2 IC50 (half-maximal inhibitory concentration)
[13] = CYP2C9 IC50 (half-maximal inhibitory concentration)

Row | Structure (SMILES) | CYP1A2 Efficacy (in parenthesis) [1] | CYP2C19 Efficacy (in parenthesis) [2] | CYP2C9 Efficacy (in parenthesis) [3] | IC50 [4, 10] [µM] | CYP2D6 Efficacy (in parenthesis) [5] | IC50 [6, 11] [µM] | IC50 [7, 12] [µM] | IC50 [8, 13] [µM] | IC50 [4] [µM] | IC50 [8] [µM] | other results
1 | O=C1c2ccccc2C(=O)C1C(=O)C(c1ccccc1)c1ccccc1 [Diphacinone] | 28.28 ± 11.08 (-93 ± 7) % | 34.81 ± 11.45 (-80 ± 23) % | 0.53 ± 0.74 (-101 ± 4) % | 32.3 | 32.29 ± 4.12 (-49 ± 4) % | 34.8 | 28.3 | 0.53 |  |  | IC50 ([8]; IC50 CYP2C9 assay): 0.5 µM
2 | CN(C)C(=O)Nc1ccc(Cl)c(Cl)c1 [Diuron] | 0.86 ± 0.12 (-103 ± 3) % | 39.45 ± 16.91 (-98 ± 5) % | 69.41 ± 26.11 (-48 ± 19) % | 42.1 | 42.09 ± 18.16 (-73 ± 17) % | 39.5 | 0.86 | 69.4 |  |  | 
3 | Clc1ccc(C(Cn2ccnc2)OCc2ccc(Sc3ccccc3)cc2)c(Cl)c1 (centres unmarked) [Fenticonazole nitrate] | 16.12 ± 1.09 (-89 ± 8) % | 2.65 ± 0.17 (-137 ± 20) % | 2.99 ± 0.41 (-103 ± 6) % |  | 0.37 ± 0.02 (-82 ± 4) % |  |  |  | 0.37 ± 0.02 | 2.99 ± 0.41 | IC50 [6]: 2.65 ± 0.17 µM; IC50 [7]: 16.1 ± 1.09 µM
4 | N=C(N)N/N=C/c1c(Cl)cccc1Cl [Guanabenz] |  |  |  |  |  |  |  |  |  |  | CYP2C19 AC50 (half-maximal activity concentration) [2]: Inactive; CYP3A4 AC50 (half-maximal activity concentration) [9]: Inactive; AC50 ([4]; CYP2D6 AC50 (half-maximal activity concentration)): 13.8 µM; AC50 ([7]; CYP1A2 AC50 (half-maximal activity concentration)): 14.4 µM; AC50 ([8]; CYP2C9 AC50 (half-maximal activity concentration)): 37.7 µM
5 | CC(C)=CCOc1c2occc2cc2ccc(=O)oc12 [Imperatorin] | 0.42 ± 0.17 (-97 ± 12) % | 4.36 ± 0.0 (-126 ± 1) % | 0.62 ± 0.07 (-96 ± 6) % | 4.72 | 4.72 ± 0.31 (-110 ± 6) % | 4.36 | 0.42 | 0.62 |  |  | 
6 | CC(C)[N+](C)(CCC(C(N)=O)(c1ccccc1)c1ccccc1)C(C)C [Isopropamide] | 30.41 ± 7.39 (-70 ± 30) % | 35.59 ± 11.39 (-61 ± 21) % | 33.31 ± 14 (-72 ± 28) % | 0.7 | 0.7 ± 0.32 (-99 ± 8) % | 35.6 | 30.4 | 33.3 |  |  | 
7 | O=C1N(c2ccccc2)c2ccccc2C1(Cc1ccncc1)Cc1ccncc1 [Linopirdine] | 24.14 ± 9.56 (-50 ± 8) % | 1.71 ± 1.07 (-136 ± 7) % | 3.04 ± 0.74 (-95 ± 5) % |  | 20.69 ± 9.02 (-61 ± 27) % |  |  |  | 20.7 ± 9.02 | 3.04 ± 0.74 | IC50 [6]: 1.71 ± 1.07 µM; IC50 [7]: 24.1 ± 9.56 µM
8 | COC(=O)c1cc(Cl)ccc1[N+](=O)[O-] [Methyl 5-chloro-2-nitrobenzoate] |  |  |  |  |  |  |  |  |  |  | CYP3A4 AC50 (half-maximal activity concentration) [9]: Inactive; AC50 [4]: 61.4 µM; AC50 [6]: 80 µM; AC50 [7]: 7.13 µM; AC50 [8]: 49.3 µM
9 | CCCN(CCc1cccs1)[C@H]1CCc2c(O)cccc2C1 [Rotigotine] | 31.04 ± 3.57 (-46 ± 10) % | 2.55 ± 0.17 (-115 ± 10) % | 16.12 ± 1.09 (-56 ± 2) % |  | 0.4 ± 0.09 (-102 ± 0) % |  |  |  | 0.4 ± 0.09 | 16.1 ± 1.09 | AC50 [4]: 0.4 ± 0.09 µM; AC50 [6]: 2.55 ± 0.17 µM; IC50 [6]: 2.55 ± 0.17 µM; AC50 [7]: 31 ± 3.57 µM; IC50 [7]: 31 ± 3.57 µM; AC50 [8]: 16.1 ± 1.09 µM
10 | Clc1ccc(C(Cn2ccnc2)OCc2ccsc2Cl)c(Cl)c1 (centres unmarked) [Tioconazole] | 4.61 ± 0.27 (-94 ± 11) % | 0.25 ± 0.09 (-140 ± 3) % | 0.21 ± 0.09 (-104 ± 10) % | 2.79 | 2.79 ± 0.58 (-109 ± 6) % | 0.25 | 4.61 | 0.21 |  |  | 
11 | Clc1ccc(Nc2nnc(Cc3ccncc3)c3ccccc23)cc1 [Vatalanib] | 2.03 ± 0.52 (-97 ± 14) % | 1.1 ± 0.95 (-157 ± 44) % | 0.79 ± 0.66 (-96 ± 3) % |  | 5.98 ± 9.87 (-107 ± 3) % |  |  |  | 5.98 | 0.79 | IC50 ([6]; CYP2C19 IC50 (half-maximal inhibitory concentration), mean ± standard deviation from three experiments, qHTS): 1.1 ± 0.95 µM; IC50 ([7]; CYP1A2 IC50 (half-maximal inhibitory concentration), mean ± standard deviation from three experiments, qHTS): 2.03 ± 0.52 µM
12 | N#C/C(=C1/SC[C@@H](c2ccc(Cl)cc2Cl)S1)n1ccnc1 [luliconazole, reference compound] | 0.33 ± 0.09 (-91 ± 7) % | 0.46 ± 0.08 (-137 ± 13) % | 0.52 ± 0.12 (-109 ± 5) % | 0.22 | 0.22 ± 0.03 (-105 ± 2) % | 0.46 | 0.33 | 0.52 |  |  | 
